We go through 2 compounds from patent publication US10543258B2, “Antibacterial composition containing ADK protein as active ingredient, or composition for preventing or treating sepsis” (priority 2014, dated 2020).

In assay [1] the test system is E. coli. In words: Growth of bacteria in LB broth, CFU over time. Format: cell-based, Escherichia coli. To be noted: 37° C., Adk 20, 50, 100 μg/ml, ampicillin 100 μg/ml, FIG. 2. As to the method:
(§1) To verify the antibacterial activity of the recombinant ADK protein obtained in Example 1, the effect of the ADK protein on the growth of gram-negative bacteria such as E. coli and P. aeruginosa and a gram-positive bacterium such as S. aureus was analyzed.
(§2) More specifically, 1×10^5 CFU of strains were put into a 10 ml LB broth, and an antibiotic (ampicillin) and the ADK protein were added respectively according to five conditions as follows (Group 1: LB broth media with 100 μg/ml ampicillin, Group 2: LB broth media with 20 μg/ml Adk, Group 3: LB broth media with 50 μg/ml Adk, Group 4: LB broth media with 100 μg/ml Adk, Group 5: Non-antibacterial agent LB broth media). The strains were cultured in a 37° C. shaking incubator, 100 μl aliquots of each group was taken at 3-hour intervals and diluted with an LB broth in predetermined ratios, followed by plating the resulting cells on an LB agar (Biobasic, Amherst, N.Y.) plate. The cells were cultured again in a 37° C. incubator overnight, and then CFU values over time were calculated by counting the number of colonies on the LB agar plate.

Assay [2] relates to P. aeruginosa. Nature of the assay: Growth of bacteria in LB broth, CFU over time. Format: cell-based, Pseudomonas aeruginosa. As to conditions: 37° C., Adk 20, 50, 100 μg/ml, ampicillin 100 μg/ml, FIG. 3.
Assay [3] has as its system S. aureus. Nature of the assay: Growth of bacteria in LB broth, CFU over time. The format is cell-based, Staphylococcus aureus. To be noted: 37° C., Adk 20, 50, 100 μg/ml, ampicillin 100 μg/ml, FIG. 4. As to the method:
as §1, §2

Assay [4] concerns E. coli K1. Nature of the assay: Sepsis animal model, serum analysis. As to conditions: 12 hours after sepsis induction; LAL assay kit; FIG. 15. Format: in vivo, BALB/c mice. As to the method:
Twelve hours after sepsis induction, levels of inflammatory cytokines (TNF-α, IL-6, and IL-1β), AST, ALT, BUN, and endotoxins in sera isolated from mice were analyzed. Here, a cytokine concentration was measured using an ELISA kit (eBiosciences, San Diego, Calif.), and endotoxins were analyzed using an endotoxin detection kit (LAL assay kit, Thermo Fisher Scientific, Bremen, Germany).

Assay [5] concerns E. coli K1. Nature of the assay: Sepsis animal model, survival rate. The format is in vivo, BALB/c mice. To be noted: gentamicin 100 μg/kg intraperitoneally; FIG. 12.

Regarding `CC1(C)S[C@@H]2[C@H](NC(=O)[C@H](N)c3ccccc3)C(=O)N2[C@H]1C(=O)O` [ampicillin], the “growth of E. coli (CFU over time)” value in assay [1] was “inhibited”. For the same compound, in assay [2], the “growth of P. aeruginosa (CFU over time)” value was “inhibited”. In addition, in assay [3], the “growth of S. aureus (CFU over time)” value is listed as “inhibited”.

As to gentamicin, the “amount of endotoxins in mouse sera” value in assay [4] is on record as “a significant difference from the negative control (CON) was not observed”. Also, the “time after sepsis induction at which all mice were dead” value in assay [5] turned out to be 30 h.
